From PubChem BioAssay AID2068 (Sanford-Burnham Center for Chemical Genomics, 2009)

Biological target: Tyrosine-protein phosphatase non-receptor type 7 (Homo sapiens) (UniProt P35236)
Assay: redox-active compounds inhibiting HePTP phosphatase – biochemical, fluorescence, mechanism study (AID 2068)
Conditions: recombinant HePTP, fluorescent phosphatase assay, redox-state modulation

Tyrosine-protein phosphatase non-receptor type 7 (Homo sapiens), sequence (P35236 whole entry, looked up): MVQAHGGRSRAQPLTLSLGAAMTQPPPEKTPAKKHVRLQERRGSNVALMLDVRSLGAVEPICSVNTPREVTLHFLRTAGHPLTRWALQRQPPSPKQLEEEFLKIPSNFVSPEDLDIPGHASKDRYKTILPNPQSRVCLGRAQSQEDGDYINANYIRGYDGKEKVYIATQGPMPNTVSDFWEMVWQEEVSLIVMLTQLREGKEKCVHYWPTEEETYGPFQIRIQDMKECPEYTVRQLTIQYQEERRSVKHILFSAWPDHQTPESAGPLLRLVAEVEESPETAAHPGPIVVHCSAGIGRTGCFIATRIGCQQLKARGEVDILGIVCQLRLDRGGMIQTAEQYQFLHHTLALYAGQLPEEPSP

`O=C(O)CSc1cc(C(=O)c2ccccc2O)cn2c(=O)c3c(-c4ccccc4)csc3nc12` showed an IC50 of 1750 nM.
